US11242344B2, “(4-hydroxypyrrolidin-2-yl)-heterocyclic compounds and methods of use thereof” (Genentech, Inc., priority 2017, dated 2022)

Experiments:
[1] = target: NanoLuc VHL fusion protein (Homo sapiens (Human), UniProt P40337); assay: VHL HEK-293 BRET Assay (NanoBRET Target Engagement); format: cell-based; settings: geometric mean where more than one measurement
Experimental: The VHL NanoBRET™ Target Engagement Assay analyzes the apparent affinity of test compounds for VHL in cells by competitive displacement of a VHL NanoBRET™ tracer reversibly bound to a NanoLuc® VHL fusion protein stably expressed in the cells. Test compounds were transferred to the assay plate (384 Well White Non-Binding Corning Assay Plates (Corning-3574)) using an Echo 555 Liquid Handler (Labcyte) in 2.5 nL increments and, as appropriate, intermediate stock concentrations of compounds, in order to prepare a titration series. 50 nL of control compound (10 mM; parental unlabeled VHL antagonist; see structure below) and 50 nL of DMSO (negative control) were dispensed into the appropriate control wells. DMSO was backfilled to a final volume of 50 nL as required. 50 nl per well of 1 mM VHL NanoBRET™ Tracer in DMSO (NanoBRET™ Tracer-PEG2-590 (see structure below)) was transferred into each well using an Echo 555 (ultimately yielding a final concentration of 1 uM). HEK 293 RT VHL-NanoLuc® stable cells were cultured in DMEM High Glucose with Pyruvate, 10% fetal bovine serum, 2 mg/mL of Geneticin Selective Antibiotic (50 mg/ml) and 2 mM HEPES (1 M). Cells were seeded in Opti-MEM (Life Technologies-11058-021), 1.7×10^5 cells/mL, 40 μl per well into the assay plate, centrifuged at 500 rpm for 30 seconds and incubated for 2 hours. Max Signal control wells consisted of DMSO only treated wells. Minimum Signal control wells contained of 10 uM parental unlabeled VHL antagonist (control compound—see structure below). 3× Complete Substrate plus Inhibitor Solution was prepared in Opti-MEM (consists of a 1:166 dilution of NanoBRET™ Nano-Glo® Substrate plus a 1:500 dilution of Extracellular NanoLuc® Inhibitor in Opti-MEM), and 20 ul was dispensed into each well of the 384-well plate and centrifuged at 1000 rpm for 1 minute, then incubated for 2 minutes at room temperature. Background Signal control wells were prepared without tracer for background correction steps. Plates were read using a PerkinElmer Envision Reader (model 2104-0020) equipped with Luminescence option (Mirror: BRET2 Enh (PE Barcode 659), Emission Filter: Omega 610LP (Barcode 504), 2nd Emission Filter: Umbelliferone 460 (Barcode 207), Measurement height: 6.5 mm, Measurement time: 1 s). The raw BRET ratio values were calculated by dividing the acceptor emission value (610 nm) by the donor emission value (460 nm) for each sample. To correct for background, the BRET ratio in the absence of tracer (average of no-tracer control samples) was subtracted from the BRET ratio of each sample. Raw BRET units were converted to milliBRET units (mBU) by multiplying each raw BRET value by 1,000. The normalized NanoBRET™ signal was calculated relative to the Max Signal control wells (DMSO treated control wells) and the Minimum Signal control wells. Percentage inhibition was calculated relative to the Minimum Signal control and Maximum Signal control wells. IC50 values were derived by four parameter curve fitting using the Robust method.

[2] = target: VHL co-expressed with Elongins B and C (Homo sapiens (Human), UniProt P40337); assay: Surface Plasmon Resonance Assay; format: binding; settings: SPR measured VHL affinity; geometric mean where more than one measurement
Chain of VHL co-expressed with Elongins B and C (P40337 whole entry, looked up): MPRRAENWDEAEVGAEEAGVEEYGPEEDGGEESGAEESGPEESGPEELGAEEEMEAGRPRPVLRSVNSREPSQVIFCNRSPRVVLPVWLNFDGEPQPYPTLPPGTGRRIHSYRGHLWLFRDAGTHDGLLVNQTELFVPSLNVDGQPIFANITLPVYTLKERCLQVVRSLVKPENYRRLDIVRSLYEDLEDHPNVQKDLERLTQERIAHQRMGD
Chain of VHL co-expressed with Elongins B and C (Q15370 whole entry partner, looked up): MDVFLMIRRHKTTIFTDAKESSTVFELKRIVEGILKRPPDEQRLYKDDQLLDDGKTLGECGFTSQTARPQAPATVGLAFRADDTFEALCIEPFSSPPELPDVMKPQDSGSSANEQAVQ
Chain of VHL co-expressed with Elongins B and C (Q15369 whole entry partner, looked up): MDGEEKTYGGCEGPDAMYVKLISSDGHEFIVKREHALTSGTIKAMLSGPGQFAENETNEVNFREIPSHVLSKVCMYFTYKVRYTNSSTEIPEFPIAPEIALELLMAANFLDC
Procedure, shortened: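 Avidin-tagged VHL co-expressed with Elongins B and C captured on a streptavidin chip. Compounds injected low-to-high concentration at 20 °C and 80 μL/min in 50 mM HEPES pH 7.2, 150 mM NaCl, 0.5 mM TCEP, 0.001% Tween 20, 0.2% PEG3350, 2% DMSO. Kinetic parameters from fits of binding curves.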

VHL Elongin B/C complex = VHL Elongin B/C complex (Homo sapiens (Human), UniProt P40337); assay: Fluorescence Polarization (FP) VHL Binding Assay; settings: VHL binding, FP assay; geometric mean where more than one measurement
Chain of VHL Elongin B/C complex (P40337 whole entry, looked up): as the sequence (P40337 whole entry, looked up) above
Chain of VHL Elongin B/C complex (Q15370 whole entry partner, looked up): as the sequence (Q15370 whole entry partner, looked up) above
Chain of VHL Elongin B/C complex (Q15369 whole entry partner, looked up): as the sequence (Q15369 whole entry partner, looked up) above
Procedure, shortened: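 FP tracer competition using His6-tagged human VHL (E55-D213) co-expressed with Elongin B and C in E. coli, final 2.64 nM, with TAMRA-labelled VHL ligand probe at 1.67 nM final. Buffer 50 mM Tris pH 8.0, 120 mM NaCl, 0.005% NP-40, 1% DMSO; 1 h at room temperature. Pre-assay compound/protein signal subtracted; IC50 from four-parameter fit.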

Chain of NanoLuc VHL fusion protein (P40337 whole entry, looked up, the tested form may be a part): as the sequence (P40337 whole entry, looked up) above
Chain of NanoLuc VHL fusion protein (Q15370 whole entry partner, looked up, the tested form may be a part): as the sequence (Q15370 whole entry partner, looked up) above
Chain of NanoLuc VHL fusion protein (Q15369 whole entry partner, looked up, the tested form may be a part): as the sequence (Q15369 whole entry partner, looked up) above

Structure (SMILES)	IC50 [1] [µM]	Kd [2] [µM]	IC50 (VHL Elongin B/C complex) [µM]
Cc1cc(C(C(=O)N2C[C@H](O)CC2C2=NC(=O)[C@](C)(c3ccc(-c4scnc4C)cc3)N2)C(C)C)sn1 (single isomer, unassigned) [Example 119.2]	100	150	≥ 400
Cc1ncsc1-c1ccc([C@]2(C)NC(C3C[C@@H](O)CN3C(=O)C(c3cnn(C)c3)C(C)C)=NC2=O)cc1 (single isomer, unassigned) [Example 110.1]	28.1	7.42	20.6
Cc1ncsc1-c1ccc([C@]2(C)NC(C3C[C@@H](O)CN3C(=O)C(c3cn(C)nn3)C(C)C)=NC2=O)cc1 (single isomer, unassigned) [Example 118.1]	100	61.5	157
Cc1cc([C@@H](C(=O)N2C[C@H](O)C[C@H]2C2=NO[C@](C)(c3ccc(Br)cc3)N2)C(C)C)on1 (mixture of isomers) [Example 113.3, (2S)-1-((2S,4R)-2-(5-(4-Bromophenyl)-5-methyl-4,5-dihydro-1,2,4-oxadiazol-3-yl)-4-hydroxypyrrolidin-1-yl)-3-methyl-2-(3-methylisoxazol-5-yl)butan-1-one and (2R)-1-((2S,4R)-2-(5-(4-Bromophenyl)-5-methyl-4,5-dihydro-1,2,4-oxadiazol-3-yl)-4-hydroxypyrrolidin-1-yl)-3-methyl-2-(3-methylisoxazol-5-yl)butan-1-one]	100	90.8	400
Cc1cc([C@H](C(=O)N2C[C@H](O)C[C@H]2C2=NOC(C)(c3ccc(-c4scnc4C)cc3)N2)C(C)C)on1 (single isomer, unassigned) [Example 129.3]	0.304	0.0293	0.418
Cc1cc([C@@H](C(=O)N2C[C@H](O)C[C@H]2C2=NOC3(CCc4ccccc43)N2)C(C)C)on1 (single isomer, unassigned) [Example 130.1]	100	83	96.1
CC/C(=C(\c1ccc(O)cc1)c1ccc(OCCN(C)C(=O)CCCOCCOc2cc(C(C(=O)N3C[C@H](O)CC3C3=NC(=O)[C@](C)(c4ccc(-c5scnc5C)cc4)N3)C(C)C)on2)cc1)c1ccccc1 (single isomer, unassigned) [Example 1003.2]	≥ 100	67.1	≥ 400
Cc1cc([C@H](C(=O)N2C[C@H](O)C[C@H]2C2=NOC(C)(C)N2)C(C)C)on1 [Example 126.1, (R)-1-((2S,4R)-2-(5,5-dimethyl-4,5-dihydro-1,2,4-oxadiazol-3-yl)-4-hydroxypyrrolidin-1-yl)-3-methyl-2-(3-methylisoxazol-5-yl)butan-1-one]	45.4	12.8	31.4
Cc1cc([C@H](C(=O)N2C[C@H](O)C[C@H]2C2=NOC(c3ccc(Br)cc3)(C(F)(F)F)N2)C(C)C)on1 (single isomer, unassigned) [Example 133.3]	22.6	36.3	34.4
CCN1N=C([C@@H]2C[C@@H](O)CN2C(=O)C(c2cc(C)no2)C(C)C)NC1(C)C (single isomer, unassigned) [Example 115.2]	25.7	4.03	40.7
CC(=O)N1CCC[C@H]1C(=O)N1C[C@H](O)CC1C1=NC(=O)[C@](C)(c2ccc(-c3scnc3C)cc2)N1 (single isomer, unassigned) [Example 121.1]	100	29.2	65.5
Cc1cc([C@H](C(=O)N2C[C@H](O)C[C@H]2C2=NO[C@@](c3ccccc3)(C(F)(F)F)N2)C(C)C)on1 (mixture of isomers) [Example 114.1, (2S)-1-((2S,4R)-4-Hydroxy-2-(5-phenyl-5-(trifluoromethyl)-4,5-dihydro-1,2,4-oxadiazol-3-yl)pyrrolidin-1-yl)-3-methyl-2-(3-methylisoxazol-5-yl)butan-1-one and (2R)-1-((2S,4R)-4-Hydroxy-2-(5-phenyl-5-(trifluoromethyl)-4,5-dihydro-1,2,4-oxadiazol-3-yl)pyrrolidin-1-yl)-3-methyl-2-(3-methylisoxazol-5-yl)butan-1-one]	100	150	400
Cc1cc(C(C(=O)N2C[C@H](O)C[C@H]2C2=NN(CC(F)(F)F)C(C)(C)N2)C(C)C)on1 (single isomer, unassigned) [Example 134.2]	41.3	57.4	48.2
Cc1ncsc1-c1ccc([C@]2(C)NC(C3C[C@@H](O)CN3C(=O)[C@H](C(C)C)N3Cc4ccccc4C3=O)=NC2=O)cc1 (single isomer, unassigned) [Example 123.2]	5.48	3.98	4.68
Cc1cc([C@H](C(=O)N2C[C@H](O)C[C@H]2C2=NO[C@](C)(c3ccc(Br)cc3)N2)C(C)C)on1 (mixture of isomers) [Example 113.4, (2S)-1-((2S,4R)-2-(5-(4-Bromophenyl)-5-methyl-4,5-dihydro-1,2,4-oxadiazol-3-yl)-4-hydroxypyrrolidin-1-yl)-3-methyl-2-(3-methylisoxazol-5-yl)butan-1-one and (2R)-1-((2S,4R)-2-(5-(4-Bromophenyl)-5-methyl-4,5-dihydro-1,2,4-oxadiazol-3-yl)-4-hydroxypyrrolidin-1-yl)-3-methyl-2-(3-methylisoxazol-5-yl)butan-1-one]	2.92	3.17	2.28
Cc1ncsc1-c1ccc([C@]2(C)NC(C3C[C@@H](O)CN3C(=O)C(c3cc(O)no3)C(C)C)=NC2=O)cc1 (single isomer, unassigned) [Example 116.1]	100	5.1	4.35

The next lines start with the values.

IC50 [1] [µM]	Kd [2] [µM]	IC50 (VHL Elongin B/C complex) [µM]	Structure (SMILES)
100	150	≥ 400	Cc1cc(C(C(=O)N2C[C@H](O)CC2C2=NC(=O)[C@](C)(c3ccc(-c4scnc4C)cc3)N2)C(C)C)sn1 (single isomer, unassigned) [Example 119.4]
16.2	4.69	17.6	Cc1cc([C@H](C(=O)N2C[C@H](O)C[C@H]2C2=NOC3(CCc4ccccc43)N2)C(C)C)on1 (single isomer, unassigned) [Example 130.3]
100	217	≥ 400	Cc1noc(C(C(=O)N2C[C@H](O)CC2C2=NC(=O)[C@](C)(c3ccc(-c4scnc4C)cc3)N2)C(C)C)n1 (single isomer, unassigned) [Example 117.3]
100	≥ 150	≥ 400	CC(=O)N1CCCCC1C(=O)N1C[C@H](O)CC1C1=NC(=O)[C@](C)(c2ccc(-c3scnc3C)cc2)N1 (single isomer, unassigned) [Example 124.3]
5.67	6.55	9.32	Cc1cc(C(C(=O)N2C[C@H](O)C[C@H]2C2=NN(c3ccccc3)C(C)(C)N2)C(C)C)on1 (single isomer, unassigned) [Example 135.2]
100	≥ 150	≥ 400	Cc1cc(C(C(=O)N2C[C@H](O)C[C@H]2C2=NN(CC(F)(F)F)C(C)(C)N2)C(C)C)on1 (single isomer, unassigned) [Example 134.1]
≥ 100	150	≥ 400	Cc1ncsc1-c1ccc([C@]2(C)NC(C3C[C@@H](O)CN3C(=O)C(c3cnn(C)c3)C(C)C)=NC2=O)cc1 (single isomer, unassigned) [Example 110.3]
